Results: patent US8461305B2, “L-fucose α1→6 specific lectin” (J-Oil Mills, Inc., priority 2008, dated 2013)

Legend:
[1] = frontal affinity chromatography (FAC), association constant to PA sugar chains having α1→6 L-fucose; type: binding; conditions: 25 degrees C.
Experimental: The following section will describe a method of calculating an association constant by frontal affinity chromatography (FAC). This method is based on the following principle. […] Then, the elution front end (front) is observed immediately. When there is an affinity with lectin, the elution of the sugar chain is delayed.
The preparation of a lectin column used in the apparatus is performed in the method as described below. 1. Purified lectin is dissolved in 0.1 to 0.2M of NaHCO3 buffer solution (pH 8.3 to 8.5). 2. The lectin is immobilized, via a lectin primary amino group, a carrier such as NHS activated sepharose. 3. Then, the lectin is blocked by Tris buffer solution including primary amine or ethanolamine for example. 4. Lectin-sepharose is suspended in 10 mM Tris buffer, including 0.8% of NaCl (pH 7.4, TBS). Then, lectin immobilized resin is filled in a miniature column (φ2 mm×10 mm, 31.4 μl). 5. The miniature column in which the lectin immobilized resin is filled is protected by a holder and the lectin column is connected to an FAC automatic analysis apparatus (FAC-1, SHIMADZU CORPORATION).
Then, the elution of the PA sugar chain from the column is detected by a fluorescence detector (excitation wavelength/fluorescence wavelength: 310 nm/380 nm).
Based on the detection data, by using the elution front end (Vo) of the sugar chain (PA rhamnose) not interacting with lectin as a reference, the delay (V−Vo) of the elution front end (V) of a sugar chain interacting with lectin is calculated as an interaction strength. Then, based on the following FAC criteria expressions, the association constant (Ka) between the sugar chain and lectin is calculated based on V−Vo and Bt. If the interaction strength (V−Vo value) and the association constant are higher, a higher affinity is caused between lectin and an L-fucose α1→6 sugar chain.
[In the formula, A means substance used for the elution, Ao means the initial concentration of the substance A, B means a immobilized ligand, V means the elution volume, Vo means the elution front end volume of the substance not interacting with the immobilized ligand B at all, Bt means an effective ligand amount, Kd means a dissociation constant (an inverse of the association constant)].
Pyridylaminated (PA) sugar chains shown in FIG. 1 and FIG. 2 were used to frontal affinity chromatography (FAC) analysis. PA sugars were purchased from TAKARA BIO INC., SEIKAGAKU BIOBUSINESS CORPORATION, and Masuda Chemical Industries co., LTD. PA sugar were also obtained by pyridylaminating, by GlycoTAG®(TAKARA BIO INC.), an unlabeled sugar chain or a sugar chain obtained by subjecting a sugar chain to enzyme digestion for example.
Lectin was dissolved in 0.2 M NaHCO3 buffer solution (pH 8.3) including 0.5 M NaCl and coupled to the NHS-activated sepharose (GE Healthcare Bioscience) by following the manufacturer's instructions. Then, lectin immobilized sepharose was suspended in 10 mM Tris buffer (pH 7.4, TBS) including […] and the resultant matter was filled in a miniature column (φ2 mm×10 mm, 31.4 μl).
Frontal affinity chromatography was performed using FAC automatic analysis apparatus (FAC-1, SHIMADZU CORPORATION). In particular, the above-prepared lectin column was inserted to a stainless steel holder and the holder was connected to FAC-1 apparatus. The flow rate and the column temperature were maintained at 0.125 ml/min and 25 degrees C., respectively. After the miniature column was equilibrated by the TBS, an excessive volume (0.5 ml to 4 ml) of a PA sugar chain (3.75 nM or 7.5 nM) was continuously inputted to the column using an automatic sampling apparatus.
The fluorescent strength of the eluate of the PA sugar (excitation wavelength of 310 nm and fluorescence wavelength of 380 nm) was monitored to measure the interaction strength [a difference of the front end eluate to the standard oligosaccharide (PA rhamnose): V−V0]. […]

[2] = hemagglutinating inhibition test with sugars (sugar binding specificity); type: cell-based
Excerpt: The sugar binding specificity of lectin also can be confirmed by using erythrocytes that can be specifically agglutinated by the lectin to investigate the sugar type that may inhibit the agglutination of the erythrocytes and the concentration thereof.
Various monosaccharides, oligosaccharides, and polysaccharides shown in Table 2 and glycoproteins shown in Table 3 were subjected to hemagglutinating inhibition test to evaluate PTL of Example 1 and the SRL of Example 2 with regard to the sugar binding specificity.
On a 96 well U-bottom microtiter plate, double dilution series of 10 μl of monosaccharide, oligosaccharide, polysaccharide, and glycoprotein solutions were prepared. Then, lectin solution adjusted in advance to have titer 4 was added in an amount of 10 μl to the respective wells. Then, the plate was subjected to a still-standing at a room temperature for one hour for sensitization. Then, 10 μl of 4%-red blood cell suspension was added to the respective wells and the plate was further subjected to a still-standing at a room temperature for one hour. […] The lowest concentration showing the inhibition was assumed as the minimum inhibition concentration. The lower the minimum inhibition concentration is, the higher the specificity to lectin is.
For comparison, the sugar binding specificity was evaluated using the following commercially-available lectins: Comparison Example 1: AAL (SEIKAGAKU BIOBUSINESS CORPORATION—J-OIL MILLS, Inc.), Comparison Example 2: AOL (TOKYO CHEMICAL INDUSTRY CO., LTD.—Gekkeikan Sake Company, Ltd.), Comparison Example 3: LCA (SEIKAGAKU BIOBUSINESS CORPORATION—J-OIL MILLS, Inc.), and Comparison Example 4: PSA (SEIKAGAKU BIOBUSINESS CORPORATION—J-OIL MILLS, Inc.).

Q: With “Aspergillus oryzae lectin [AOL, reference compound]” as the substance, how does the “association constant Ka” value ([1]; Sugar chain No. 015) read?
A: 130000 M⁻¹

Q: What about the “association constant Ka” value ([1]; Sugar chain No. 201) of the same substance?
A: 120000 M⁻¹

Q: And the “association constant Ka” value ([1]; Sugar chain No. 202)?
A: 120000 M⁻¹

Q: What about the “association constant Ka” value ([1]; Sugar chain No. 203) of the same substance?
A: 130000 M⁻¹

Q: What about the “association constant Ka” value ([1]; Sugar chain No. 401) of the same substance?
A: 140000 M⁻¹

Q: And the “association constant Ka” value ([1]; Sugar chain No. 402)?
A: 160000 M⁻¹

Q: And the “association constant Ka” value ([1]; Sugar chain No. 403)?
A: 130000 M⁻¹

Q: And the “association constant Ka” value ([1]; Sugar chain No. 404)?
A: 150000 M⁻¹

Q: And the “association constant Ka” value ([1]; Sugar chain No. 405)?
A: 130000 M⁻¹

Q: What about the “association constant Ka” value ([1]; Sugar chain No. 406) of the same substance?
A: 110000 M⁻¹

Q: And the “association constant Ka” value ([1]; Sugar chain No. 407)?
A: 110000 M⁻¹

Q: What about the “association constant Ka” value ([1]; Sugar chain No. 410) of the same substance?
A: 100000 M⁻¹

Q: And the “association constant Ka” value ([1]; Sugar chain No. 413)?
A: 79000 M⁻¹

Q: And the “association constant Ka” value ([1]; Sugar chain No. 418)?
A: 63000 M⁻¹

Q: What about the “association constant Ka” value ([1]; Sugar chain No. 601) of the same substance?
A: 140000 M⁻¹

Q: What about the “association constant Ka” value ([1]; Sugar chain No. 602) of the same substance?
A: 140000 M⁻¹

Q: What about the “minimum inhibition concentration of hemagglutination” value (shortened to “minimum inhibition concentration”) ([2]; inhibitor: Fructose) of the same substance?
A: 25 mM

Q: And the “minimum inhibition concentration” value ([2]; inhibitor: Galactose)?
A: >100 mM

Q: What about the “minimum inhibition concentration” value ([2]; inhibitor: Glucose) of the same substance?
A: >100 mM

Q: And the “minimum inhibition concentration” value ([2]; inhibitor: L-fucose)?
A: 0.391 mM

Q: And the “minimum inhibition concentration” value ([2]; inhibitor: Lactose)?
A: >6 mM

Q: And the “minimum inhibition concentration” value ([2]; inhibitor: Maltose)?
A: >100 mM

Q: And the “minimum inhibition concentration” value ([2]; inhibitor: Mannose)?
A: 100 mM

Q: What about the “minimum inhibition concentration” value ([2]; inhibitor: Melibiose) of the same substance?
A: >100 mM

Q: And the “minimum inhibition concentration” value ([2]; inhibitor: Metyl α-mannoside)?
A: >100 mM

Q: And the “minimum inhibition concentration” value ([2]; inhibitor: N-Acetylneuraminic acid)?
A: >100 mM

Q: What about the “minimum inhibition concentration” value ([2]; inhibitor: N-acetylgalactosamine) of the same substance?
A: >100 mM

Q: What about the “minimum inhibition concentration” value ([2]; inhibitor: N-acetylglucosamine) of the same substance?
A: >100 mM

Q: And the “minimum inhibition concentration” value ([2]; inhibitor: N-glycolylneuraminic acid)?
A: >100 mM

Q: And the “minimum inhibition concentration” value ([2]; inhibitor: Raffinose)?
A: >100 mM

Q: And the “minimum inhibition concentration” value ([2]; inhibitor: Rhamnose)?
A: 100 mM

Q: And the “minimum inhibition concentration” value ([2]; inhibitor: Serial lactose)?
A: >6 mM

Q: And the “minimum inhibition concentration” value ([2]; inhibitor: Sucrose)?
A: >100 mM

Q: And the “minimum inhibition concentration” value ([2]; inhibitor: Xylose)?
A: >100 mM

Q: Which “association constant Ka” value ([1]; Sugar chain No. 015) does the source give for Naematoloma sublateritium lectin [NSL] here?
A: 36000 M⁻¹

Q: And the “association constant Ka” value ([1]; Sugar chain No. 201)?
A: 38000 M⁻¹

Q: And the “association constant Ka” value ([1]; Sugar chain No. 202)?
A: 39000 M⁻¹

Q: And the “association constant Ka” value ([1]; Sugar chain No. 203)?
A: 30000 M⁻¹

Q: What about the “association constant Ka” value ([1]; Sugar chain No. 401) of the same substance?
A: 51000 M⁻¹

Q: And the “association constant Ka” value ([1]; Sugar chain No. 402)?
A: 36000 M⁻¹

Q: What about the “association constant Ka” value ([1]; Sugar chain No. 403) of the same substance?
A: 52000 M⁻¹

Q: What about the “association constant Ka” value ([1]; Sugar chain No. 404) of the same substance?
A: 43000 M⁻¹

Q: And the “association constant Ka” value ([1]; Sugar chain No. 405)?
A: 50000 M⁻¹

Q: And the “association constant Ka” value ([1]; Sugar chain No. 406)?
A: 23000 M⁻¹

Q: And the “association constant Ka” value ([1]; Sugar chain No. 410)?
A: 31000 M⁻¹

Q: And the “association constant Ka” value ([1]; Sugar chain No. 418)?
A: 35000 M⁻¹

Q: And the “association constant Ka” value ([1]; Sugar chain No. 602)?
A: 19000 M⁻¹
